How the values were obtained:
biofilms of MRSA = test: Disruption of mature biofilms, confocal microscopy; format: cell-based, S. aureus; details: 20 μM; for thickness of biofilm after treatment: 24 h, untreated 11.8 μm
From the text: Another growing challenge in treating bacterial infections is the formation of biofilms, which are recalcitrant to antibiotic treatment.[29] Most antibiotics including vancomycin are rendered ineffective against biofilms consisting of both dividing and non-dividing cells, majorly due to their inability to penetrate through the extracellular polymeric matrix. Thus, it is important to develop compounds that eradicate biofilms as well as planktonic cells. Untreated biofilms of MRSA grew to a thickness of 11.8 μm (Fig. S3A ^†). The vancomycin-treated biofilms remained intact with thickness similar to the untreated control. […]
were added to it the wells containing bacterial suspension. Fluorescence has monitored at excitation wavelength of 535 nm (slit width: 10 nm) and emission wavelength of 617 nm (slit width: 5 nm). As a measure of inner membrane permeabilization the uptake of PI was monitor by the increase in fluorescence for 30-50 min. For assessing depolarisation against stationary phase cells of MRSA ATCC 33591, cells were grown to the stationary phase for 16 h. The culture was then diluted to an OD600 of 0.2 and the depolarisation assays was performed as described. The experiments were performed three times independently in duplicates and the graph is representative of the results from all experiments.
Cytoplasmic membrane depolarization assay5
Mid log phase MRSA were harvested (3500 rpm, 5 min), washed in 5 mM glucose and 5 mM HEPES buffer (pH 7.2) in 1:1 ratio and resuspended in 5 mM HEPES buffer, 5 mM glucose and 100 mM KCl solution in 1:1:1 ratio. Then 2 μM of 3, 3′-Dipropylthiadicarbocyanine iodide (DiSC3(5)) was added to bacterial suspension and pre-incubated for 45 min. The fluorescence was monitored at excitation wavelength of 622 nm and emission wavelength of 670 nm. Then 20 μL of test compound and vancomycin were added to black well plates containing bacterial suspension and DiSC3(5) after 2-4 min of fluorescence measurement. As a measure of membrane depolarization fluorescence was monitor for another 35 min. […]

MRSA ATCC33591 = test: Neutropenic murine thigh infection model; format: in vivo, Balb/c mice; details: for bacterial load in thigh: 12 mg kg^−1 i.p. at 1 h and 13 h post-infection, 24 h, untreated 8 log CFU g^−1
Procedure: The in vitro activity, low toxicity, and stability in plasma and liver homogenate, supported the potential of VanQAmC10 as a candidate for the treatment of bacterial infections. The efficacy of VanQAmC10 (8) against MRSA was tested in a neutropenic mouse thigh infection model. Infection was established by injecting them with 5 × 10^5 CFU of MRSA in the thigh. 1 h and 13 h post-infection, mice were treated with 12 mg kg^−1 of vancomycin and VanQAmC10 administered intraperitoneally (Fig. 6B). The mice were sacrificed 24 h post-infection. […] In the untreated group, the bacterial load increased to 8 log CFU g^−1. […] However, treatment with VanQAmC10 reduced the bacterial load to 3.3 log CFU g^−1, which is a 1.5 log CFU g^−1 lower bacterial load than observed against vancomycin. […]
bacterial concentration was adjusted to ~ […] based on OD600. The process was repeated for 27 passages. The fold of MIC increased for test compounds were plotted against […]
Activity in blood plasma and liver homogenate
To examine the susceptibility of VanQAmC10 to serum proteases, the antibacterial activities was tested in the presence of 50% of plasma and liver homogenate. Briefly, 250 μL of VanQAmC10 was added into 250 μL of fresh human plasma and incubated at 37 °C. An aliquot of the samples 3 h and 24h post-incubation was diluted in 0.9% saline and the antibacterial activity (MIC) were determined against MRSA and VRE by following the same protocol as described above for the antibacterial assay.
The toxicity of the lead compound VanQAmC10 was tested in mice through various modes of administration and reported as the LD50 (LD = lethal dose). The LD50 is the dosage that kills 50% of the test population of mice. […]
The doses for administration, were given modified OECD guidelines. LD50 was determined using Spearman-Karber method. […]
Groups of four 6 to 8 week-old Balb/c specific-pathogen-free female mice were used (weight ~22 g) for the experiment. […] The bacterial titer was expressed as Log CFU/g of thigh weight and plotted in GraphPad Prism software. […]

SMILES | thickness of biofilm after treatment (biofilms of MRSA) [μm] | reduction of thickness of biofilms (biofilms of MRSA; mature MRSA biofilm) | bacterial load in thigh (MRSA ATCC33591) [log CFU g^−1] | lower bacterial load than observed against vancomycin (MRSA ATCC33591; 12 mg kg^−1 i.p. twice) [log CFU g^−1]
CCCCCCCCCCNC(=O)C[N+](C)(C)CCCNC(=O)C1NC(=O)C2NC(=O)C(NC(=O)C3NC(=O)C(CC(N)=O)NC(=O)C(NC(=O)C(CC(C)C)NC)C(O)c4ccc(c(Cl)c4)Oc4cc3cc(c4OC3OC(CO)C(O)C(O)C3OC3CC(C)(N)C(O)C(C)O3)Oc3ccc(cc3Cl)C2O)c2ccc(O)c(c2)-c2c(O)cc(O)cc21 (stereo not drawn) [VanQAmC10 (8)] | 7.4 | about 40% | 3.3 | 1.5
CN[C@H](CC(C)C)C(=O)N[C@H]1C(=O)N[C@@H](CC(N)=O)C(=O)N[C@H]2C(=O)N[C@H]3C(=O)N[C@H](C(=O)N[C@H](C(=O)O)c4cc(O)cc(O)c4-c4cc3ccc4O)[C@H](O)c3ccc(c(Cl)c3)Oc3cc2cc(c3O[C@@H]2O[C@H](CO)[C@@H](O)[C@H](O)[C@H]2O[C@H]2C[C@](C)(N)[C@H](O)[C@H](C)O2)Oc2ccc(cc2Cl)[C@H]1O [Vancomycin, reference compound] | 10.1 | – | 4.8 | –

— paper PMC9977398, “Next-generation membrane-active glycopeptide antibiotics that also inhibit bacterial cell division” (Chemical Science, 2023)
